# Experimental data published in PubChem BioAssay (NCI).
# Values joined by “and” are separate entries in the source; they are usually repeats but may differ in a detail not shown here. Equal values may be shown once.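 Test compounds were applied to cells in 96-well plates for 48 hours at 5 doses. The concentration for 50% growth inhibition is given as GI50. TGI denotes the concentration required for complete inhibition of growth.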
# Experiments:
# Experiment in all cases: inhibition of tumour cell growth, NCI panel, 48 h
# UACC-257 melanoma = system: UACC-257 melanoma
# SK-MEL-5 melanoma = system: SK-MEL-5 melanoma
# HOP-62 NSCLC = system: HOP-62 NSCLC
# SNB-75 CNS = system: SNB-75 CNS
# KM12 colon = system: KM12 colon
# LOX IMVI melanoma = system: LOX IMVI melanoma
# IGROV1 ovarian = system: IGROV1 ovarian
# COLO 205 colon = system: COLO 205 colon
# UACC-62 melanoma = system: UACC-62 melanoma
# DU-145 prostate = system: DU-145 prostate
Compound,GI50 (UACC-257 melanoma),TGI (UACC-257 melanoma),GI50 (SK-MEL-5 melanoma),TGI (SK-MEL-5 melanoma),GI50 (HOP-62 NSCLC),TGI (HOP-62 NSCLC),GI50 (SNB-75 CNS),TGI (SNB-75 CNS),GI50 (KM12 colon),TGI (KM12 colon),GI50 (LOX IMVI melanoma),TGI (LOX IMVI melanoma),GI50 (IGROV1 ovarian),TGI (IGROV1 ovarian),GI50 (COLO 205 colon),TGI (COLO 205 colon),GI50 (UACC-62 melanoma),TGI (UACC-62 melanoma),GI50 (DU-145 prostate),TGI (DU-145 prostate)
C/C1=C\CC[C@@](C)(O)[C@@H]2C[C@H](CC/C(C)=C/CC1)C1(CC1)C(=O)O2,77.8 µM,> 100 µM,17400 nM,35 µM,45.1 µM,> 100 µM,30800 nM,> 100 µM,25.4 µM,68.5 µM,18800 nM,34.5 µM,28100 nM,> 100 µM,15600 nM,36.4 µM,15.2 µM,37.3 µM,41.8 µM,> 100 µM
Fc1ccc2nc(-c3cc(-c4ccc5c(c4)OCO5)n[nH]3)[nH]c2c1,8.91 µM,> 100 µM,1560 nM,3.14 µM,5.44 µM,> 43.4 µM,2800 nM,13.8 µM,2.49 µM,> 32 µM,2180 nM,10.4 µM,3790 nM,> 100 µM,9220 nM,> 66.1 µM,4.37 µM,> 52.2 µM,5.84 µM,> 53.1 µM
CCNCCNc1cc(-c2ccc(C#N)cc2)c(C#N)c2nc3ccccc3n12,3.72 µM,7.14 µM,2280 nM,5.67 µM,3.13 µM,14.9 µM,1660 nM,4.24 µM,3.36 µM,12.2 µM,1720 nM,3.29 µM,4530 nM,18 µM,1880 nM,4.16 µM,2.02 µM,4.18 µM,4.13 µM,15.3 µM
CCn1c(-c2nonc2N)nc2ccncc21,> 25 µM,> 25 µM,> 25000 nM,> 25 µM,> 25 µM,> 25 µM,> 25000 nM,> 25 µM,> 25 µM,> 25 µM,> 25000 nM,> 25 µM,> 25000 nM,> 25 µM,> 25000 nM,> 25 µM,> 25 µM,> 25 µM,> 25 µM,> 25 µM
O=C1/C(=C/c2ccc([N+](=O)[O-])cc2)COc2ccc(O)cc21,32.1 µM,> 100 µM,12100 nM,53.6 µM,49.8 µM,> 100 µM,> 100000 nM,> 100 µM,2.15 µM,5.25 µM,1680 nM,3.23 µM,2000 nM,4.99 µM,10700 nM,55.7 µM,9.02 µM,34.5 µM,13.5 µM,> 100 µM
O=C(/C=C/c1cccc(O)c1)c1cccc(-n2cc(-c3ccc4ccccc4c3)[nH]c2=O)c1,4.13 µM,18.4 µM,1160 nM,2.41 µM,2.26 µM,4.29 µM,1880 nM,5.93 µM,1.21 µM,2.45 µM,858 nM,2.08 µM,1330 nM,2.79 µM,2090 nM,4.65 µM,1.8 µM,4.92 µM,1.75 µM,3.65 µM
Nc1cc(-c2ccc(Cl)cc2)nn1-c1nnc(/C=C/c2ccco2)c(=O)[nH]1,6.55 µM,47.3 µM,3370 nM,20.2 µM,6.83 µM,60.1 µM,12900 nM,41.4 µM,4.05 µM,> 56.6 µM,4820 nM,37.8 µM,4890 nM,37.8 µM,3640 nM,> 42.9 µM,5.45 µM,> 58.6 µM,4.5 µM,28.2 µM
O=C(c1cccs1)C1NO[N+]([O-])=C1c1cccs1 (stereo not drawn),5.16 µM,15.3 µM,16200 nM,31 µM,4.77 µM,11.4 µM,1540 nM,3.89 µM,3.33 µM,12.1 µM,2400 nM,6.5 µM,1750 nM,3.72 µM,1800 nM,4.51 µM,12.1 µM,24.8 µM,3.76 µM,10.7 µM
COc1cccc2c(=O)c3c(sc12)c(NCCCNCCO)nc1ccccc13,1.94 µM,3.79 µM,1690 nM,3.11 µM,1.2 µM,2.81 µM,964 nM,7.44 µM,1.72 µM,3.23 µM,1480 nM,2.96 µM,1160 nM,2.58 µM,1450 nM,3.09 µM,1.6 µM,3.03 µM,1.65 µM,3.11 µM
CCOC(=O)N1CCN(CCCCCOc2ccccc2C2CCCCC2)CC1,,,1520 nM,3.53 µM,2.52 µM,8.05 µM,10700 nM,23 µM,7.67 µM,23.1 µM,2850 nM,12.5 µM,10400 nM,23.1 µM,2320 nM,7.14 µM,4.86 µM,19.7 µM,14.4 µM,32.3 µM
Cc1cc2c(cc1Cl)S/C(=C/C(=O)O)C(Nc1cccc3nsnc13)=NS2(=O)=O,> 57.9 µM,> 70.7 µM,33400 nM,> 58.5 µM,> 54.8 µM,> 66.9 µM,> 100000 nM,> 100 µM,50.6 µM,> 65.3 µM,53400 nM,> 70.1 µM,> 49900 nM,> 78.3 µM,> 48300 nM,> 61.5 µM,43 µM,> 66.2 µM,> 16 µM,> 57.3 µM
CCOc1ccc(Nc2c3ccccc3nc3ccccc23)cc1,0.552 µM and 0.888 µM,2.22 µM and 6.32 µM,343 nM and 371 nM,1.33 µM and 1.45 µM,0.416 µM and 0.672 µM,5.25 µM and 13.1 µM,309 nM and 250 nM,3.39 µM and 1.52 µM,0.581 µM and 0.487 µM,9.39 µM and 4.52 µM,515 nM and 529 nM,2.98 µM,758 nM and 320 nM,14.9 µM and 13.4 µM,313 nM and 307 nM,1.39 µM and 1.33 µM,0.506 µM and 0.216 µM,4.25 µM and 1.3 µM,0.843 µM and 1.01 µM,9.34 µM and 6.59 µM
